From ChEMBL document CHEMBL4229333, “Effects of rigidity on the selectivity of protein kinase inhibitors” (Eur J Med Chem, 2018)
In brackets after ≈: the same amount, converted by molar mass.

Assays:
[1] = Solubility of compound at 37 degC incubated for 24 hrs by HPLC method; type: physicochemical
[2] = molecular target: NUAK family SNF1-like kinase 1 (Homo sapiens) (UniProt O60285); assay: Inhibition of ARK5 (unknown origin) at 1 uM by mobility shift microfluidics platform based assay relative to control
[3] = molecular target: Aurora kinase A (Homo sapiens) (UniProt O14965); assay: Inhibition of AURORA-A (unknown origin) at 1 uM by mobility shift microfluidics platform based assay relative to control
[4] = molecular target: Cytoplasmic tyrosine-protein kinase BMX (Homo sapiens) (UniProt P51813); assay: Inhibition of BMX (unknown origin) at 1 uM by mobility shift microfluidics platform based assay relative to control
[5] = molecular target: Serine/threonine-protein kinase BRSK2 (Homo sapiens) (UniProt Q8IWQ3); assay: Inhibition of BRSK2 (unknown origin) at 1 uM by mobility shift microfluidics platform based assay relative to control
Sequence of Serine/threonine-protein kinase BRSK2 (Homo sapiens) (Q8IWQ3 whole entry): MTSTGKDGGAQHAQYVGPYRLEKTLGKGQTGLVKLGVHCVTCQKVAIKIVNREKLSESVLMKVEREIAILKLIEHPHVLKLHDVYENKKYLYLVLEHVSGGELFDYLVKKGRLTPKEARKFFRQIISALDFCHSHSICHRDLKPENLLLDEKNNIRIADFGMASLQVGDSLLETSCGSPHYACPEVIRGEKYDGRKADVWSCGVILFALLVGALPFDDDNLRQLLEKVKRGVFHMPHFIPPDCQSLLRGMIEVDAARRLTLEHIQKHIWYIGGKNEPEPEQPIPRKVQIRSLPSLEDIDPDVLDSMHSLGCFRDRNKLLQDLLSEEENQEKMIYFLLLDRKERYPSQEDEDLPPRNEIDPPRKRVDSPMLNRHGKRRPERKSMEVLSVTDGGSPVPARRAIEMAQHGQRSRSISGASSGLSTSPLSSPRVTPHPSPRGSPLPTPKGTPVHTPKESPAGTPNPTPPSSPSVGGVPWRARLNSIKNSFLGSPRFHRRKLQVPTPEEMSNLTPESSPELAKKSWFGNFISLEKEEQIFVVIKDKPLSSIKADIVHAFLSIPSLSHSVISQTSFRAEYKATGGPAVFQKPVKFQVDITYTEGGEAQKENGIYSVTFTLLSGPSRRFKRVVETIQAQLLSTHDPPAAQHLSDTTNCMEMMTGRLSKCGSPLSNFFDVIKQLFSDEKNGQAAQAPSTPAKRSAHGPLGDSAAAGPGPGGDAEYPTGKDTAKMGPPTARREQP

[6] = molecular target: Calcium/calmodulin-dependent protein kinase type 1 (Homo sapiens) (UniProt Q14012); assay: Inhibition of CAMK1A (unknown origin) at 1 uM by mobility shift microfluidics platform based assay relative to control
[7] = molecular target: Calcium/calmodulin-dependent protein kinase type II subunit alpha (Homo sapiens) (UniProt Q9UQM7); assay: Inhibition of CAMK2A (unknown origin) at 1 uM by mobility shift microfluidics platform based assay relative to control
[8] = molecular target: Calcium/calmodulin-dependent protein kinase type II subunit delta (Homo sapiens) (UniProt Q13557); assay: Inhibition of CAMK2D (unknown origin) at 1 uM by mobility shift microfluidics platform based assay relative to control
[9] = molecular target: Serine/threonine-protein kinase Chk2 (Homo sapiens) (UniProt O96017); assay: Inhibition of CHEK2 (unknown origin) at 1 uM by mobility shift microfluidics platform based assay relative to control
[10] = molecular target: Death-associated protein kinase 3 (Homo sapiens) (UniProt O43293); assay: Inhibition of DAPK3 (unknown origin) at 1 uM by mobility shift microfluidics platform based assay relative to control
Sequence of Death-associated protein kinase 3 (Homo sapiens) (O43293 whole entry, looked up): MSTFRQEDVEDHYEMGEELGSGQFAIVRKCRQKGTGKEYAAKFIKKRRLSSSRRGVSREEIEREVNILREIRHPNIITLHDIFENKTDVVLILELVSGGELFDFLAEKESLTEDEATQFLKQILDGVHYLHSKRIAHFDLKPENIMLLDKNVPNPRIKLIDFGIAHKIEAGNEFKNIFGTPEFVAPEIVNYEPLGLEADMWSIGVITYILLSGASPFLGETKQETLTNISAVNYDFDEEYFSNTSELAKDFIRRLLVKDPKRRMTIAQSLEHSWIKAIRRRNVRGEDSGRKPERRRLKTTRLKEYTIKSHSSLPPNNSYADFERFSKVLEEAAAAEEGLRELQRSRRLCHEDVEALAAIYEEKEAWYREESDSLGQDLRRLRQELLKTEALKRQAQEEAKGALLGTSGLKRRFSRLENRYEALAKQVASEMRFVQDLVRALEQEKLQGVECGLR

[11] = molecular target: Epidermal growth factor receptor (Homo sapiens) (UniProt P00533); assay: Inhibition of EGFR (unknown origin) at 1 uM by mobility shift microfluidics platform based assay relative to control
[12] = molecular target: Ephrin type-A receptor 1 (Homo sapiens) (UniProt P21709); assay: Inhibition of EPH-A1 (unknown origin) at 1 uM by mobility shift microfluidics platform based assay relative to control
[13] = molecular target: Ephrin type-B receptor 2 (Homo sapiens) (UniProt P29323); assay: Inhibition of EPH-B2 (unknown origin) at 1 uM by mobility shift microfluidics platform based assay relative to control
[14] = molecular target: Ephrin type-B receptor 4 (Homo sapiens) (UniProt P54760); assay: Inhibition of EPH-B4 (unknown origin) at 1 uM by mobility shift microfluidics platform based assay relative to control
[15] = molecular target: Receptor tyrosine-protein kinase erbB-2 (Homo sapiens) (UniProt P04626); assay: Inhibition of ERB-B2 (unknown origin) at 1 uM by mobility shift microfluidics platform based assay relative to control
[16] = molecular target: Tyrosine-protein kinase Fyn (Homo sapiens) (UniProt P06241); assay: Inhibition of FYN (unknown origin) at 1 uM by mobility shift microfluidics platform based assay relative to control
[17] = molecular target: Glycogen synthase kinase-3 beta (Homo sapiens) (UniProt P49841); assay: Inhibition of GSK-3-beta (unknown origin) at 1 uM by mobility shift microfluidics platform based assay relative to control
[18] = molecular target: Homeodomain-interacting protein kinase 2 (Homo sapiens) (UniProt Q9H2X6); assay: Inhibition of HIPK2 (unknown origin) at 1 uM by mobility shift microfluidics platform based assay relative to control
Sequence of Homeodomain-interacting protein kinase 2 (Homo sapiens) (Q9H2X6 whole entry, looked up): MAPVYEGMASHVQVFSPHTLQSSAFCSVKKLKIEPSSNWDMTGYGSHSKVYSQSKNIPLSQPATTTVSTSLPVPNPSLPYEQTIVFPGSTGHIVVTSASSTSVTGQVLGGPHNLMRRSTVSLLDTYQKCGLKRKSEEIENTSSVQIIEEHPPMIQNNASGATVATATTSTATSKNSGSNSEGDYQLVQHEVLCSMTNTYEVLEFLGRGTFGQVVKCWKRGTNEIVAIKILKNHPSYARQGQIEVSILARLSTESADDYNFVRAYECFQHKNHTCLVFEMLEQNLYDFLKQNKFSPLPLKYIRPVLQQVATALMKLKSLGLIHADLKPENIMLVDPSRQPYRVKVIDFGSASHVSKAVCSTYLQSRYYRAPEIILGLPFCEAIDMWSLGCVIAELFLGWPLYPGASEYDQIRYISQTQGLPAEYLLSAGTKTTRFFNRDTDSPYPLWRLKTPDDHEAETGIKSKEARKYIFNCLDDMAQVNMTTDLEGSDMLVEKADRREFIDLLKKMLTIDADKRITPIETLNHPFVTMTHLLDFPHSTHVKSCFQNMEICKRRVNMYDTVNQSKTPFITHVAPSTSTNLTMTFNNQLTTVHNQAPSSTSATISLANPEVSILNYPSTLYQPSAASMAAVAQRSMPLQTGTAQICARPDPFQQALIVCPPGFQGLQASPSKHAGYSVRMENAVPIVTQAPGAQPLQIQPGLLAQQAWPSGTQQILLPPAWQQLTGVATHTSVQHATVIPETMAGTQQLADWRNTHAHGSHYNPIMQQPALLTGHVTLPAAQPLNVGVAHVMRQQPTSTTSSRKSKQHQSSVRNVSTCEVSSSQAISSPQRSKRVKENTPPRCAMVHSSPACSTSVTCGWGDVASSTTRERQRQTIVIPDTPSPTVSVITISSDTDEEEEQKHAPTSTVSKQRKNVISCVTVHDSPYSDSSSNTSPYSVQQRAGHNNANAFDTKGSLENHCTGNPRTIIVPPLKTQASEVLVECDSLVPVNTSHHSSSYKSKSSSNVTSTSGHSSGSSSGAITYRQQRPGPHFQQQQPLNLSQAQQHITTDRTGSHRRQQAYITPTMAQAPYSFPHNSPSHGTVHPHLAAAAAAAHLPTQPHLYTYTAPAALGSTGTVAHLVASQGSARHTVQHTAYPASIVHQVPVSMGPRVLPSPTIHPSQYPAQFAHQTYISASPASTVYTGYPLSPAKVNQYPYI

[19] = molecular target: Insulin receptor-related protein (Homo sapiens) (UniProt P14616); assay: Inhibition of IRR (unknown origin) at 1 uM by mobility shift microfluidics platform based assay relative to control
[20] = molecular target: Tyrosine-protein kinase JAK3 (Homo sapiens) (UniProt P52333); assay: Inhibition of JAK3 (unknown origin) at 1 uM by mobility shift microfluidics platform based assay relative to control
[21] = molecular target: Mast/stem cell growth factor receptor Kit (Homo sapiens) (UniProt P10721); assay: Inhibition of KIT (unknown origin) at 1 uM by mobility shift microfluidics platform based assay relative to control
[22] = molecular target: MAP/microtubule affinity-regulating kinase 3 (Homo sapiens) (UniProt P27448); assay: Inhibition of MARK3 (unknown origin) at 1 uM by mobility shift microfluidics platform based assay relative to control
Sequence of MAP/microtubule affinity-regulating kinase 3 (Homo sapiens) (P27448 whole entry, looked up): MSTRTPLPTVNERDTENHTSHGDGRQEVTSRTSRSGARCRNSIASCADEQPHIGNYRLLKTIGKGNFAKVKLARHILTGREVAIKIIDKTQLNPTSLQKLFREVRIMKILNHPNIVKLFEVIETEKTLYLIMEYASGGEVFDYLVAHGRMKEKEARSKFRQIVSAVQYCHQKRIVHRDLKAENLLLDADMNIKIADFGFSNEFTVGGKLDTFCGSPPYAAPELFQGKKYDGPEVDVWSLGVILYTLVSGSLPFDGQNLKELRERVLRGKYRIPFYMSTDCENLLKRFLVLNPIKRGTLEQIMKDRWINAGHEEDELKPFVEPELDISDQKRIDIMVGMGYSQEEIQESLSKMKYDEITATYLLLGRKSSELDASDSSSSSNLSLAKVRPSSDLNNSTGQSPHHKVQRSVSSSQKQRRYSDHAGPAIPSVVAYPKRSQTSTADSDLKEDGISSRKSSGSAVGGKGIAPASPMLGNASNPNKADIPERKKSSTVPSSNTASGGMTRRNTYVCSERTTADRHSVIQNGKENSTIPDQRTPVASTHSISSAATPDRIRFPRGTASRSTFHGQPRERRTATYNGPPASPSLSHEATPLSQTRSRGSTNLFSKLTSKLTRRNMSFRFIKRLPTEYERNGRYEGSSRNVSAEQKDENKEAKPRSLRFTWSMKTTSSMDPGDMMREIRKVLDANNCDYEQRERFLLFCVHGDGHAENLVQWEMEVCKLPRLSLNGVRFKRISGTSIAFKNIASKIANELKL

[23] = molecular target: Tyrosine-protein kinase Mer (Homo sapiens) (UniProt Q12866); assay: Inhibition of MER (unknown origin) at 1 uM by mobility shift microfluidics platform based assay relative to control
[24] = molecular target: Ribosomal protein S6 kinase beta-1 (Homo sapiens) (UniProt P23443); assay: Inhibition of P70S6K1 (unknown origin) at 1 uM by mobility shift microfluidics platform based assay relative to control
[25] = molecular target: Platelet-derived growth factor receptor alpha (Homo sapiens) (UniProt P16234); assay: Inhibition of PDGFR-alpha (unknown origin) at 1 uM by mobility shift microfluidics platform based assay relative to control
[26] = molecular target: 3-phosphoinositide-dependent protein kinase 1 (Homo sapiens) (UniProt O15530); assay: Inhibition of PDK1 (unknown origin) at 1 uM by mobility shift microfluidics platform based assay relative to control
[27] = molecular target: Serine/threonine-protein kinase N1 (Homo sapiens) (UniProt Q16512); assay: Inhibition of PKN1 (unknown origin) at 1 uM by mobility shift microfluidics platform based assay relative to control
[28] = molecular target: MAP kinase-activated protein kinase 5 (Homo sapiens) (UniProt Q8IW41); assay: Inhibition of PRAK (unknown origin) at 1 uM by mobility shift microfluidics platform based assay relative to control
[29] = molecular target: Protein-tyrosine kinase 2-beta (Homo sapiens) (UniProt Q14289); assay: Inhibition of PYK2 (unknown origin) at 1 uM by mobility shift microfluidics platform based assay relative to control
[30] = molecular target: Serine/threonine-protein kinase SIK1 (Homo sapiens) (UniProt P57059); assay: Inhibition of SIK (unknown origin) at 1 uM by mobility shift microfluidics platform based assay relative to control
[31] = molecular target: Sphingosine kinase 2 (Homo sapiens) (UniProt Q9NRA0); assay: Inhibition of SPHK2 (unknown origin) at 1 uM by mobility shift microfluidics platform based assay relative to control
Sequence of Sphingosine kinase 2 (Homo sapiens) (Q9NRA0 whole entry): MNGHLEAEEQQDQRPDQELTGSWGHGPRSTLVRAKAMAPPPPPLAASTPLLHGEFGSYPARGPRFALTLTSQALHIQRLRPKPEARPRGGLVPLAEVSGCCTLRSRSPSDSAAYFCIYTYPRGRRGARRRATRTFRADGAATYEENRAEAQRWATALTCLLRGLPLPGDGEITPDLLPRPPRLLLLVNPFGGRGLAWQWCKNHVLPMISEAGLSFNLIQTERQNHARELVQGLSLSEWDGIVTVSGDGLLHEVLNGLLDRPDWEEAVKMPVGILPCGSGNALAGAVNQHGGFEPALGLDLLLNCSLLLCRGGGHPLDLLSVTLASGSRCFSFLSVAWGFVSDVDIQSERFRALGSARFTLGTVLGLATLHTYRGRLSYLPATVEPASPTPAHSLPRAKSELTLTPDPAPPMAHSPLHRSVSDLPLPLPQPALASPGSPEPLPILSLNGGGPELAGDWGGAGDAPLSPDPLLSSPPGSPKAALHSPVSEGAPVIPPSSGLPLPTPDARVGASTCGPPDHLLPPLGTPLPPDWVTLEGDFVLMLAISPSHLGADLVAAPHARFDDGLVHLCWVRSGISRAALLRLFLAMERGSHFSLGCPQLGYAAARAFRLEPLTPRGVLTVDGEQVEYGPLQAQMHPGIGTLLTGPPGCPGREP

[32] = molecular target: Serine/threonine-protein kinase 25 (Homo sapiens) (UniProt O00506); assay: Inhibition of STK25 (unknown origin) at 1 uM by mobility shift microfluidics platform based assay relative to control
[33] = molecular target: Serine/threonine-protein kinase TBK1 (Homo sapiens) (UniProt Q9UHD2); assay: Inhibition of TBK1 (unknown origin) at 1 uM by mobility shift microfluidics platform based assay relative to control
[34] = molecular target: Serine/threonine-protein kinase PLK4 (Homo sapiens) (UniProt O00444); assay: Inhibition of PLK4 (unknown origin) at 1 uM by mobility shift microfluidics platform based assay relative to control
Sequence of Serine/threonine-protein kinase PLK4 (Homo sapiens) (O00444 whole entry): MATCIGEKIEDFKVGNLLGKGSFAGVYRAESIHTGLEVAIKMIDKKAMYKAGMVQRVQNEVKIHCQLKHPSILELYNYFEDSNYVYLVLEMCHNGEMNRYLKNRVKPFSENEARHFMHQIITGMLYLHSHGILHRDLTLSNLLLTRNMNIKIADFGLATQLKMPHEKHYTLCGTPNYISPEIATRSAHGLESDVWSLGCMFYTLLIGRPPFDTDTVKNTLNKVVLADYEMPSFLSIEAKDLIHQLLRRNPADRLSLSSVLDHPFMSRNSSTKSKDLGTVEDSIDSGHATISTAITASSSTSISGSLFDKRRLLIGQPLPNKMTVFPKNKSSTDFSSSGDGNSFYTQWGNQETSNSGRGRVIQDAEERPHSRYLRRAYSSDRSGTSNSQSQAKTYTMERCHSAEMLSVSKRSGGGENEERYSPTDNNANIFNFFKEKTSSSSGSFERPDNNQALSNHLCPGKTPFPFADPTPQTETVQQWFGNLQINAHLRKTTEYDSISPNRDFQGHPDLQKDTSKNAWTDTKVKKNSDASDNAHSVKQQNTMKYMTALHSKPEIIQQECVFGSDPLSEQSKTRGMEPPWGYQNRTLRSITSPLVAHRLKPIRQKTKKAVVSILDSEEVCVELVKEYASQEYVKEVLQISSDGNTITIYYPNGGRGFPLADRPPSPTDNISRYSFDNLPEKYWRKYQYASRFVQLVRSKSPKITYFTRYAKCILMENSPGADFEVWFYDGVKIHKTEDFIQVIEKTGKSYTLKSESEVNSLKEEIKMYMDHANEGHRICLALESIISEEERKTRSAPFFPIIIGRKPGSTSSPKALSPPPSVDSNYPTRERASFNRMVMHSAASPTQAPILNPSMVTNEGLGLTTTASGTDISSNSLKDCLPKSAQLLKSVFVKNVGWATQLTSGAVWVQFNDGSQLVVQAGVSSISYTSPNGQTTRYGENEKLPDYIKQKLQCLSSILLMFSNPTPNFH

SMILES | solubility at 24 h [1] [µM] | inhibition [2] [%] | inhibition [3] [%] | inhibition [4] [%] | inhibition [5] [%] | inhibition [6] [%] | inhibition [7] [%] | inhibition [8] [%] | inhibition [9] [%] | inhibition [10] [%] | inhibition [11] [%] | inhibition [12] [%] | inhibition [13] [%] | inhibition [14] [%] | inhibition [15] [%] | inhibition [16] [%] | inhibition [17] [%] | inhibition [18] [%] | inhibition [19] [%] | inhibition [20] [%] | other results
CC(C)n1nc(C#Cc2cccc(NC(=O)c3cccc(C(F)(F)F)c3)c2)c2c(N)ncnc21 | 161 (≈ 74.8 µg/mL) | 14 | 90 | 98 | -3 | 2 | 3 | -1 | 3 | 11 | 55 | 97 | 99 | 97 | 58 | 101 | 19 | 0 | 2 | 30 | inhibition [21]: 98%; inhibition [22]: -1%; inhibition [23]: 6%; inhibition [24]: 5%; inhibition [25]: 100%; inhibition [26]: 4%; inhibition [27]: -2%; inhibition [28]: -1%; inhibition [29]: 74%; inhibition [30]: 43%; inhibition [31]: 0%; inhibition [32]: -5%; inhibition [33]: 6%; inhibition [34]: 74%
CC(C)n1nc(C#Cc2cccc3cc(-c4cccc(C(F)(F)F)c4)ncc23)c2c(N)ncnc21 | 60 (≈ 28.3 µg/mL) | 1 | 29 | 36 | 0 | 1 | 6 | 0 | -4 | 11 | 3 | 46 | 97 | 80 | 0 | 85 | 3 | -1 | -3 | 10 | inhibition [21]: 97%; inhibition [22]: 1%; inhibition [23]: 0%; inhibition [24]: 1%; inhibition [25]: 94%; inhibition [26]: 5%; inhibition [27]: 6%; inhibition [28]: 7%; inhibition [29]: 1%; inhibition [30]: 7%; inhibition [31]: 20%; inhibition [32]: 3%; inhibition [33]: 1%; inhibition [34]: 5%
